Reference: article PMC8482815, “Targeting Host Glycolysis as a Strategy for Antimalarial Development” (Frontiers in Cellular and Infection Microbiology, 2021)
Where “and” joins values, the source holds several entries; their conditions need not be identical. Equal entries are not always repeated.

Test system: human erythrocytes
Assay: Untargeted metabolomics and 13C-glucose tracing of enolase inhibitor treated erythrocytes
Assay type: cell-based
Settings: 0h
Procedure: Freshly collected erythrocytes were washed, resuspended to 10% hematocrit in buffer [25mM HEPES (pH 7.4), 120mM NaCl, 5.4mM KCl, 1.8mM CaCl2, and 1mM NaH2PO4], incubated for 1 hour at 37°C, then centrifuged at 2000xg for 5 minutes at 4°C, resuspended in fresh wash buffer to 30-40% hematocrit, and split into 210µL aliquots of packed erythrocytes. […] All samples were incubated at 37°C shaking at 500 RPM. Triplicate samples of supernatants and packed erythrocytes were collected at 0, 0.5, 1, and 6-hour intervals and snap-frozen in liquid N2.
RBC and media samples were extracted at 1:10 and 1:20 dilutions, respectively, in 5:3:2 MeOH : MeCN:H2O v/v/v, and supernatants analyzed on a Thermo Vanquish UHPLC coupled to a Thermo Q Exactive mass spectrometer, as extensively described ([Nemkov et al., 2015]; [Nemkov et al., 2017]). The extraction buffer was supplemented with 40uM 3-^13C lactate to allow absolute quantification of lactate isotopologues, including lactate generated via glycolysis ([1,2,3-^13C3] enriched) vs. the pentose phosphate pathway ([2,3-^13C2] enriched), as described ([Reisz et al., 2016]). Metabolite assignments, peak area integration and isotopologues distributions were determined using Maven (Princeton University) ([Nemkov et al., 2015]; [Nemkov et al., 2017]).
Data were auto-scaled and normalized to zero-hour time points. Metabolites were removed from the dataset if greater than 50% of the samples contained missing values or the relative standard deviation among replicates exceeded 25%. Additionally, data was filtered using the interquartile range to reduce near-constant values from the experiment by 5%.
A principal component analysis of preprocessed data was plotted with the 95% confidence interval minimum volume enclosing ellipsoid for each respective group (MetaboAnalyst, cluster, plotly). A two-way repeated measures analysis of variance (ANOVA) was performed with multiple comparisons corrected for using a false discovery rate p-value cutoff of 0.05. Metabolite-Pathway analysis was performed using the R package of MetaboAnalyst, as previously described ([Xia and Wishart, 2010]). Metabolite-Protein nodal analysis was performed using omicsnet.ca and as previously described ([Zhou and Xia, 2018]).

[1] = treated erythrocytes, one value per replicate sample, polarity +
[2] = treated erythrocytes, one value per replicate sample, polarity -
[3] = treated erythrocytes, replicate samples

In the case of `CC(C)(C)C(=O)OCOP(=O)(OCOC(=O)C(C)(C)C)C1CCCN(O)C1=O` (stereo not shown) [POMHEX], the “AMP level (metabolomics signal)” value (replicate samples) is reported as 2.43E+06 and 4.08E+06 and 2.38E+06, the “ATP level (metabolomics signal)” value (replicate samples) is reported as 7.62E+03 and 7.58E+03 and 9.00E+03 and the “Adenine level (metabolomics signal)” value (replicate samples) is reported as 1.31E+05 and 1.38E+05 and 1.32E+05. For the same compound, the “Cytosine level (metabolomics signal)” value (replicate samples) was 8.55E+04 and 2.38E+05 and 4.74E+05, the “L-alanine level (metabolomics signal)” value (replicate samples) was 7.28E+06 and 6.97E+06 and 9.28E+06 and the “L-arginine level (metabolomics signal)” value (replicate samples) was 7.34E+06 and 1.51E+07 and 4.28E+06. The “L-asparagine level (metabolomics signal)” value (replicate samples) was 3.07E+06 and 3.14E+06 and 2.95E+06, the “L-aspartate level (metabolomics signal)” value (replicate samples) was 3.52E+07 and 3.22E+07 and 3.54E+07 and the “L-cysteine level (metabolomics signal)” value (replicate samples) was 4.11E+05 and 4.42E+05 and 1.93E+05. The “L-glutamate level (metabolomics signal)” value (replicate samples) was 3.91E+07 and 3.64E+07 and 4.16E+07, the “L-glutamine level (metabolomics signal)” value (replicate samples) was 3.51E+07 and 3.65E+07 and 2.77E+07 and the “L-histidine level (metabolomics signal)” value (replicate samples) was 1.77E+06 and 1.86E+06 and 1.64E+06. The “L-isoleucine level (metabolomics signal)” value (replicate samples) was 0.00E+00 and 2.79E+07 and 2.01E+07, the “L-leucine level (metabolomics signal)” value (replicate samples) was 1.13E+08 and 1.29E+08 and 1.02E+08 and the “L-lysine level (metabolomics signal)” value (replicate samples) was 3.76E+06 and 3.91E+06 and 3.34E+06. The “L-methionine level (metabolomics signal)” value (replicate samples) was 1.20E+07 and 1.28E+07 and 9.77E+06, the “L-phenylalanine level (metabolomics signal)” value (replicate samples) was 3.89E+06 and 5.35E+06 and 4.43E+06 and the “L-proline level (metabolomics signal)” value (replicate samples) was 3.87E+07 and 4.04E+07 and 2.78E+07. For the same compound, the “L-serine level (metabolomics signal)” value (replicate samples) was 2.27E+06 and 2.30E+06 and 2.07E+06, the “L-threonine level (metabolomics signal)” value (replicate samples) was 3.34E+06 and 3.50E+06 and 3.23E+06 and the “L-tryptophan level (metabolomics signal)” value (replicate samples) was 4.61E+06 and 3.92E+06 and 4.51E+06. For the same compound, the “L-tyrosine level (metabolomics signal)” value (replicate samples) was 1.31E+07 and 1.44E+07 and 1.06E+07, the “L-valine level (metabolomics signal)” value (replicate samples) was 1.25E+08 and 1.20E+08 and 1.19E+08 and the “dCMP level (metabolomics signal)” value (replicate samples) was 2.66E+04 and 2.57E+04 and 1.91E+04. The “dTMP level (metabolomics signal)” value (replicate samples) was 1.47E+06 and 1.26E+06 and 9.65E+05, the “glycine level (metabolomics signal)” value (replicate samples) was 1.29E+06 and 1.21E+06 and 1.30E+06 and the “N-Acyl-D-aspartate (C06380) metabolite signal” value [1] was 2.82E+05 and 3.24E+05 and 2.89E+05. The “Poly-gamma-D-glutamate (C05723) metabolite signal” value [1] was 2.28E+07 and 2.38E+07 and 1.86E+07, the “D-Ribitol 5-phosphate (C01068) metabolite signal” value [2] was 1.18E+04 and 2.78E+04 and 2.55E+04 and the “D-glucono-1,5-lactone (C00198) metabolite signal” value [2] was 7.35E+05 and 6.39E+05 and 6.34E+05. For the same compound, the “L-Noradrenaline (C00547) metabolite signal” value [2] was 2.10E+05 and 2.67E+05 and 1.54E+05, the “Oxalosuccinate (C05379) metabolite signal” value [2] was 1.80E+05 and 1.89E+05 and 1.75E+05 and the “Pyridoxamine (C00534) metabolite signal” value [2] was 3.47E+04 and 2.11E+04 and 4.13E+04. For the same compound, the “Thioredoxin disulfide (C00343) metabolite signal” value [2] was 8.56E+04 and 8.74E+04 and 6.44E+04, the “1-4-beta-D-Xylan (metabolite signal)” value [3] was 2.75E+05 and 3.19E+05 and 2.60E+05 and the “2-Hydroxyglutarate/Citramalate (C02630) metabolite signal” value [3] was 1.87E+05 and 1.44E+05 and 1.36E+05. The “5-6-Dihydrothymine (C00906) metabolite signal” value [3] was 3.37E+05 and 3.23E+05 and 2.70E+05, the “5-10-Methenyltetrahydrofolate (metabolite signal)” value [3] was 3.52E+05 and 3.49E+05 and 3.48E+05 and the “5-Hydroxyisourate (C11821) metabolite signal” value [3] was 4.58E+06 and 4.14E+06 and 5.16E+06. The “5-L-Glutamyl-taurine (metabolite signal)” value [3] was 1.13E+05 and 1.05E+05 and 1.57E+05, the “5-Oxoproline (metabolite signal)” value [3] was 1.19E+06 and 1.09E+06 and 9.91E+05 and the “(S)(+)-Allantoin (C02350) metabolite signal” value [3] was 4.00E+04 and 4.50E+04 and 4.43E+04. For the same compound, the “Allantoate (C00499) metabolite signal” value [3] was 3.63E+05 and 4.40E+05 and 2.26E+05, the “Ascorbate (metabolite signal)” value [3] was 1.03E+05 and 1.39E+05 and 1.05E+05 and the “CMP-N-acetylneuraminate (metabolite signal)” value [3] was 3.22E+04 and 2.63E+04 and 3.17E+04. The “Carnosine (metabolite signal)” value [3] was 2.22E+05 and 1.73E+05 and 2.52E+05, the “Citrate (C00158) metabolite signal” value [3] was 2.73E+04 and 3.19E+04 and 2.59E+04 and the “Creatine (metabolite signal)” value [3] was 2.64E+08 and 2.63E+08 and 2.96E+08. The “Creatinine (metabolite signal)” value [3] was 3.90E+06 and 3.59E+06 and 3.78E+06, the “Cys-Gly (metabolite signal)” value [3] was 1.91E+06 and 2.03E+06 and 2.13E+06 and the “D-Glucosamine (metabolite signal)” value [3] was 6.56E+04 and 1.26E+05 and 1.11E+05. The “D-Glucose (C00031) metabolite signal” value [3] was 7.03E+06 and 7.96E+06 and 6.07E+06, the “D-Ribose (C00121) metabolite signal” value [3] was 2.42E+05 and 2.08E+05 and 2.00E+05 and the “Dehydroascorbate (metabolite signal)” value [3] was 6.66E+03 and 1.26E+04 and 9.16E+03. The “Dihydrofolate (metabolite signal)” value [3] was 2.17E+06 and 2.08E+06 and 1.28E+06, the “Dimethylglycine (metabolite signal)” value [3] was 1.13E+06 and 1.12E+06 and 1.22E+06 and the “Diphosphate (C00013) metabolite signal” value [3] was 2.29E+03 and 2.81E+03 and 1.30E+03. For the same compound, the “Fumarate (C00122) metabolite signal” value [3] was 1.70E+05 and 1.53E+05 and 1.29E+05, the “Glutathione (C00051) metabolite signal” value [3] was 1.29E+08 and 1.42E+08 and 1.45E+08 and the “Glutathione disulfide (metabolite signal)” value [3] was 4.07E+05 and 2.99E+05 and 3.44E+05. For the same compound, the “Hypoxanthine (C00262) metabolite signal” value [3] was 1.23E+05 and 8.50E+04 and 1.07E+05, the “IMP (C00130) metabolite signal” value [3] was 2.07E+04 and 4.13E+04 and 2.42E+04 and the “Inosine (C00294) metabolite signal” value [3] was 1.23E+05 and 1.19E+05 and 1.09E+05. The “L-Citrulline (metabolite signal)” value [3] was 2.18E+06 and 2.13E+06 and 2.77E+06, the “L-Homoserine (metabolite signal)” value [3] was 1.85E+05 and 2.19E+05 and 1.31E+05 and the “Lactate (C01432) metabolite signal” value [3] was 7.44E+06 and 7.84E+06 and 7.12E+06. The “Malate (C00149) metabolite signal” value [3] was 4.07E+05 and 3.13E+05 and 3.03E+05, the “Mannitol (C00392) metabolite signal” value [3] was 1.01E+05 and 1.11E+05 and 1.22E+05 and the “N-Acetylneuraminate (metabolite signal)” value [3] was 3.05E+04 and 3.27E+04 and 2.27E+04. The “N-Glycoloyl-neuraminate (metabolite signal)” value [3] was 2.02E+05 and 2.52E+05 and 1.61E+05, the “NAD+ (C00003) metabolite signal” value [3] was 3.20E+05 and 3.25E+05 and 4.11E+05 and the “Nicotinamide (C00153) metabolite signal” value [3] was 2.56E+07 and 2.61E+07 and 2.89E+07. The “Ornithine (metabolite signal)” value [3] was 2.51E+06 and 2.56E+06 and 2.47E+06, the “Oxaloacetate (C00036) metabolite signal” value [3] was 4.82E+04 and 5.32E+04 and 4.35E+04 and the “Phosphoserine (metabolite signal)” value [3] was 1.31E+05 and 1.59E+05 and 1.52E+05. For the same compound, the “Putrescine (metabolite signal)” value [3] was 5.04E+04 and 6.26E+04 and 7.87E+04, the “Pyridoxal (C00250) metabolite signal” value [3] was 5.06E+04 and 4.81E+04 and 5.68E+04 and the “Pyruvate (C00022) metabolite signal” value [3] was 8.21E+05 and 7.91E+05 and 7.06E+05. For the same compound, the “S-Glutathionyl-L-cysteine (metabolite signal)” value [3] was 1.68E+05 and 1.57E+05 and 8.75E+04, the “Sedoheptulose 1-phosphate (C06222) metabolite signal” value [3] was 4.53E+04 and 4.14E+04 and 2.92E+04 and the “Spermidine (metabolite signal)” value [3] was 9.43E+06 and 1.01E+07 and 9.63E+06. The “Spermine (metabolite signal)” value [3] was 8.86E+06 and 9.58E+06 and 9.08E+06, the “Succinate (C00042) metabolite signal” value [3] was 1.10E+05 and 1.06E+05 and 1.08E+05 and the “Thymidine (C00214) metabolite signal” value [3] was 1.93E+04 and 1.39E+04 and 1.28E+04. For the same compound, the “UDP (C00015) metabolite signal” value [3] was 3.47E+05 and 4.31E+05 and 2.43E+05, the “UDP-N-acetyl-D-glucosamine (metabolite signal)” value [3] was 2.77E+04 and 2.13E+04 (2×) and the “UDP-glucose (C00029) metabolite signal” value [3] was 8.05E+04 and 6.15E+04 and 6.31E+04. For the same compound, the “Urate (C00366) metabolite signal” value [3] was 4.79E+04 and 4.62E+04 and 3.28E+04, the “Xanthine (C00385) metabolite signal” value [3] was 3.87E+05 and 3.78E+05 and 3.91E+05 and the “alpha-D-Glucosamine 1-phosphate (metabolite signal)” value [3] was 1.72E+06 and 1.66E+06 and 2.32E+06. For the same compound, the “alpha-D-Ribose 1-phosphate (C00620) metabolite signal” value [3] was 1.60E+05 and 1.43E+05 and 1.11E+05, the “gamma-Glutamyl-gamma-aminobutyrate (metabolite signal)” value [3] was 8.08E+04 and 5.90E+04 and 1.10E+05 and the “gamma-L-Glutamyl-D-alanine (metabolite signal)” value [3] was 2.48E+04 and 2.19E+04 and 1.85E+04. The “gamma-L-Glutamyl-L-cysteine (metabolite signal)” value [3] was 2.81E+04 and 3.64E+04 and 2.51E+04.
